US10308656B2, “Small molecule inhibitors of Ku70/80 and uses thereof” (ARIZONA BOARD OF REGENTS ON BEHALF OF THE UNIVERSITY OF …, priority 2015, dated 2019)
“Also recorded” adds a separate entry of the source.

Legend:
[1] = tested on: SF-767 glioblastoma cells; assay: Radiation sensitization / cytotoxicity by MTS assay in glioblastoma cells; assay type: cell-based, human; details: for Sensitization to radiation therapy (RT): human glioblastoma multiforme (GBM) cells
Procedure: (§1) Consequently, this substance could have an effect on the efficiency of overall repair of DSBs. In order to examine this potential, experiments tested Compound L for its ability to potentiate the effects of ionizing radiation on two human cell lines: the glioblastoma cell line SF-767 (FIG. 5A), and an hTERT immortalized prostate epithelial (PrEC) cell line (see, R. Berger, et al., Cancer Res., 64 (2004), pp. 8867-8875) (FIG. 5B). Cultured cells were treated with either the compound as a single modality, ionizing radiation as a single modality or with a regimen of concurrent radiation and compound. Cell viability was measured after a six day recovery period by standard MTS assay and normalized to the untreated control (no compound or radiation). FIG. 5 presents the observed effects of each treatment modality in terms of percentage non-viable cells. The effects are plotted as a function of the compound's concentration in the culture medium.
(§2) As expected, experiments observed a clear, dose-dependent increase in non-viable cell population with increasing concentrations of Compound L (FIG. 5, red columns). This reflects the fundamental cytotoxicity of the compound under the chosen experimental conditions. In both cell lines, toxicity of Compound L stayed low (below 5% non-viability) up to 25 μM, after which an exponential increase in cytotoxicity was observed. […] In order to exclude the possibility that this phenomenon was caused by mere additive effects, experiments calculated the sum of the effects of the single modalities (FIG. 5, purple columns) and compared the obtained values with the effects of the combination treatments. By definition, synergism is present when the effect of the combination therapy (green columns) exceeds the sum of the effects of the single modalities (purple columns). In SF-767 cells, synergism was most clearly observed between 20 and 30 μM (FIG. 5A) and in immortalized PrEC cells synergism was present in the 20-35 μM range (FIG. 5B).
(§3) This is done by means of a standard MTS assay, measuring survival of human glioblastoma (SF767) or immortalized prostate epithelial (PrEC) cells 7 days after treatment with compounds and radiation therapy. […] The radiation-sensitizing potential of Compound L and JV761 is attributable to the ability of these compounds to suppress the activity of Ku70/80 in vivo.

[2] = biological target: Ku70/80 heterodimer-DNA interaction (Homo sapiens, UniProt P12956+P13010); assay: Electrophoretic Mobility Shift Assay (EMSA) of Ku70/80 binding to a DNA substrate; details: for Disruption of Ku70/80-DNA interaction (disappearance of the band shift): compound at 100 μM in EMSA reaction
Ku70/80 heterodimer-DNA interaction, sequence (P12956 whole entry): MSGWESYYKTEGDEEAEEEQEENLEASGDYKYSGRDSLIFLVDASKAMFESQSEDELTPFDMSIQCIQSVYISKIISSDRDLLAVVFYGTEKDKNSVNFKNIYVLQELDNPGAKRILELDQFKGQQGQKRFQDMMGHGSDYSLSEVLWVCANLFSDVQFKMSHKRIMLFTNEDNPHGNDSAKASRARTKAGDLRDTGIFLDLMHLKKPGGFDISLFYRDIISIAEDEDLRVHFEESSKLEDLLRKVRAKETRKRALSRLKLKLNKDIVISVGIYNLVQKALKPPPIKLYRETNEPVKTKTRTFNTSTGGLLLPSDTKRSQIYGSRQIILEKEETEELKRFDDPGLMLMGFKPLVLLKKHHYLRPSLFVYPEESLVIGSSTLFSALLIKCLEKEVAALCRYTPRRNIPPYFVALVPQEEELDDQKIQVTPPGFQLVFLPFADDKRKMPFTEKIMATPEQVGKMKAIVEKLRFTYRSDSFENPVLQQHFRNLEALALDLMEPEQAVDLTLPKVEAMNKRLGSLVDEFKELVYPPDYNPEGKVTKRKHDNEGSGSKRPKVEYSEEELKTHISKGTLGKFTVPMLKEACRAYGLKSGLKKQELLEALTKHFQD
Ku70/80 heterodimer-DNA interaction, sequence (P13010 whole entry): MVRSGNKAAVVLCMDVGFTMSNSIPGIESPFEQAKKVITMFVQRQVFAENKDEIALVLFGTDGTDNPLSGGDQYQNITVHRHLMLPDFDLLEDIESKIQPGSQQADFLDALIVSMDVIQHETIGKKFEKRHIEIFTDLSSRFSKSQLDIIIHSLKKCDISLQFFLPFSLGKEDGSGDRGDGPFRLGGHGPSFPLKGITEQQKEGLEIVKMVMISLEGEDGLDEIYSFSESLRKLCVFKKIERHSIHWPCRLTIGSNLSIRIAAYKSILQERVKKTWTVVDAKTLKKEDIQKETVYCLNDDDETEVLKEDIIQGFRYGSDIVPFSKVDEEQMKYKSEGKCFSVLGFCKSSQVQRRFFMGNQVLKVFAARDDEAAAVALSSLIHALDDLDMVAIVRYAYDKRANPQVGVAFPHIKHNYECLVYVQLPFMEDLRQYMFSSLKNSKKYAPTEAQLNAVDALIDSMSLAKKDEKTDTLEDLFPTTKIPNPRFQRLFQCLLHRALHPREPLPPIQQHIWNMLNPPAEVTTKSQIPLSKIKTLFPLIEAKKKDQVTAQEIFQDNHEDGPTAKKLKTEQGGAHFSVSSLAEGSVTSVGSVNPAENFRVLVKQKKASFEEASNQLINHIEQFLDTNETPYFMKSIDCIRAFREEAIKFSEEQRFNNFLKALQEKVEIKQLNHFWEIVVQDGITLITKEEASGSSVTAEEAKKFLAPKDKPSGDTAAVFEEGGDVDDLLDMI
From the text: Next, the described ‘protomol’ was utilized as a guide to screen small molecule databases for potential inhibitors. Hits were sorted from highest to lowest docking scores and nine compounds were ultimately chosen for biological activity screening (see, Table 1). These compounds were commercially obtained and designated with a letter (A through H, and L). For initial activity screening experiments utilized an Electrophoretic Mobility Shift Assay (EMSA), in which a radioactively labeled artificial DNA substrate was incubated with a preparation of purified Ku70/80 protein, followed by non-denaturing gel electrophoresis. Interaction of Ku70/80 with DNA caused a measurable shift of the DNA band. […] Compounds C and L were further investigated for their ability to disrupt the Ku70/80 DNA interaction as well as Ku-dependent activation of the DNA-PKcs kinase.
Therefore, a two orders of magnitude range of serial dilutions of the compounds was added to the previously described EMSA reactions. Inhibition of Ku-DNA interaction in a straight forward dose-dependent manner by compound L alone was observed (FIG. 3B). In order to quantify the relative efficiency of Ku-DNA binding for each dose of Compound L, the intensity of the Ku-DNA bands in the EMSA assay was measured and normalized those values to a number between 0 and 100, where the value 0 represents a reaction where no Ku70/80 was present and the value 100 represents a reaction where no inhibitor was added. These normalized values were subsequently plotted against the corresponding concentrations of Compound L (FIG. 3B). A logarithmic trend line was added and equations were obtained to describe the dose-response curves of Compound L in the EMSA assay. […] IC50 values in this range are generally considered to be a viable starting point for lead-finding exploits.

[3] = biological target: DNA-PKCS kinase (Ku-dependent activation) (Homo sapiens, UniProt P12956+P13010); assay: DNA-PKCS kinase activity assay, Ku70/80-dependent in vitro phosphorylation of a p53-based peptide substrate; assay type: biochemical; details: for Impairment of Ku-dependent activation of DNA-PKCS: in vitro
DNA-PKCS kinase (Ku-dependent activation), sequence (P12956 whole entry): as the sequence (P12956 whole entry) above
DNA-PKCS kinase (Ku-dependent activation), sequence (P13010 whole entry): as the sequence (P13010 whole entry) above
From the text: To further validate the Ku-inhibitory activity of Compound L, experiments examined its effects on Ku-dependent activation of the DNA-PKCS kinase. […] It is, however, a potent co-factor for the activation of other NHEJ enzymes, including DNA-PKCS (see, G. C. Smith, et al., Genes Dev., 13 (1999), pp. 916-934). It was therefore reasoned that disruption of the Ku-DNA interaction by Compound L should also diminish DNA-PKCS kinase activity. The DNA-PKCS kinase has multiple known downstream targets, including p53, Artemis, and DNA-PKCS itself (see, E. Weterings, et al., Cell Res., 18 (2008), pp. 114-124; G. C. Smith, et al., Genes Dev., 13 (1999), pp. 916-934). It is at present not entirely clear which targets are critical for the overall DNA repair response, but it is evident that the kinase domain of DNA-PKCS is indispensable. Experiments therefore quantified the kinase activity of a purified preparation of the DNA-PKCS protein in the presence of different concentrations of Compound L. Experiments measured the phosphorylation of a p53-based peptide substrate as an arbitrary reporter of DNA-PKCS kinase activity. The obtained in vitro DNA-PKCS kinase activities were subsequently normalized and plotted as a function of compound L concentration (FIG. 4A). Experiments observed a sharp dose-dependent inhibition of DNA-PKCS kinase activity. […] Therefore, both primary (EMSA) and secondary (DNA-PKCS activity) assays for the Ku-inhibitory potential of Compound L indicate an IC50 value in the lower micro-molar range.
This example compares the in vitro activity of several structural analogs of Compound L. This assay measures the effect of each compound on the in vitro activity of the DNA-PKCS kinase.

[4] = Radiation sensitization / cytotoxicity by MTS assay in prostate epithelial cells; assay type: cell-based, human; details: human, hTERT immortalized prostate epithelial (PrEC) cells; PrEC, up to 25 μM, MTS after six day recovery; read-out: Non-viability (toxicity of compound as single modality)
Procedure: as §1
(§4) As expected, experiments observed a clear, dose-dependent increase in non-viable cell population with increasing concentrations of Compound L (FIG. 5, red columns). […] In order to exclude the possibility that this phenomenon was caused by mere additive effects, experiments calculated the sum of the effects of the single modalities (FIG. 5, purple columns) and compared the obtained values with the effects of the combination treatments. […]

[5] = tested on: hTERT immortalized prostate epithelial (PrEC) cells; assay: as above; assay type: cell-based, human; details: immortalized PrEC, concurrent compound and radiation, FIG. 5B
Procedure: as §1, §4

[6] = Tolerability and toxicity after bolus IP injection with two week follow-up; assay type: in vivo; details: mice
[7] = tested on: DNA double strand break (DSB) repair in glioblastoma cells (SF767); assay: DSB repair after radiation by γ-H2AX phosphorylation; assay type: cell-based, human; details: 25 μM, post radiation
Procedure: This repair process is dependent on active Ku70/80 and the suppression of Ku-dependent DSB repair is further proof that Compound L inhibits Ku70/80 activity. The relative amount of DSBs is measured by counting the relative intensity of a canonical DSB marker: γ-H2AX.
Relative number of DSBs was measured by quantifying and normalizing γ-H2AX phosphorylation. […] Measured in human glioblastoma cells (SF767). Error bars represent standard error.

[8] = tested on: DNA-PKCS SER2056 autophosphorylation in SF-767 cells; assay: DNA-PKCS autophosphorylation assay (Western blot) after etoposide-induced DSBs; assay type: cell-based, human
From the text: In order to further examine the effects of Compound L on Ku-dependent activation of the DNA-PKCS kinase in vivo, experiments also exposed cultures of the human glioblastoma cell line SF-767 to increasing concentrations of Compound L. Upon induction of DSBs by etoposide, experiments quantified the levels of DNA-PKCS autophosphorylation at the SER2056 residue by means of Western blot analysis (FIG. 4B).

[9] = Radiation sensitization / cytotoxicity by MTS assay in glioblastoma cells; assay type: cell-based, human; details: human, SF-767 glioblastoma cells; SF-767, up to 25 μM, MTS after six day recovery; read-out: Non-viability (toxicity of compound as single modality)
Procedure: as §1, §2, §3

[10] = Pharmacokinetic profile after bolus IP injection, plasma levels by LC-MS; assay type: in vivo, nude mice; details: bolus IP 1, 3 or 5 mg/kg
Procedure: A bolus IP injection of Compound L was given at either 1, 3, or 5 mg/kg and plasma levels of Compound L were determined by LC-MS.

Row | SMILES | Sensitization to radiation therapy (RT) [1] | Disruption of Ku70/80-DNA interaction (disappearance of the band shift) [2] | Impairment of Ku-dependent activation of DNA-PKCS [3] | cytotoxicity at 6 days [4] [%] | Concentration range of synergism with radiation [5] [µM] | Histopathology and comprehensive blood panels ([6]; after two weeks) | Signs of toxicity ([6]; bolus IP, acute and two week follow-up) | Tolerability ([6]; single bolus IP injection up to 5 mg/kg) | DSB repair kinetics (γ-H2AX) [7] | Total DNA-PKCS level ([8]; Western blot) | DNA-PKCS autophosphorylation at the SER2056 residue ([8]; increasing doses, etoposide) | Concentration range of synergistic radiation-sensitization ([1]; human cancer cells, 4Gy radiation, MTS 7 days after treatment, FIG. 9) [µM] | cytotoxicity at 6 days [9] [%] | IC50 ([2]; EMSA titration, logarithmic trend line, read-out: IC50, dose needed to inhibit 50% of maximal Ku-DNA binding) [nM] | Plasma levels versus dose ([10]; LC-MS) | half-life ([10]; mouse, plasma, nude mice) [h] | IC50 ([3]; p53-based peptide substrate, logarithmic trend line) [nM]
1 | COc1ccc(N2CCN(Cc3nc(N)nc(Nc4cccc(C)c4)n3)CC2)cc1 [Compound C, 4-[[4-(4-methoxyphenyl)piperazin-1-yl]methyl]-6-(m-tolyimino)-5H-1,3,5-triazin-2-amine] | synergistically sensitize | disruption of the Ku70/80-DNA interaction; also recorded: screen positive for disruption of Ku70/80-DNA interaction; also recorded: capable of disrupting the binding of Ku to DNA | capable of disrupting the binding of Ku to DNA as well as the activation of DNA-PKCS | – | – | – | – | – | – | – | – | – | – | – | – | – | –
2 | COc1ccc(CCNc2ncc3c(=O)n(-c4cccc(F)c4)c(=O)[nH]c3n2)cc1OC [Compound L, 7-[[2-(3,4-dimethoxyphenyl)ethyl]amino]-3-(3-fluorophenyl)pyrimido[4,5-d] pyrimidine-2,4(1H,3H)-dione] | synergistically sensitize | disruption of the Ku70/80-DNA interaction; also recorded: screen positive for disruption of Ku70/80-DNA interaction; also recorded: capable of disrupting the binding of Ku to DNA | capable of disrupting the binding of Ku to DNA as well as the activation of DNA-PKCS | < 5 | 20 to 35 | no abnormalities; also recorded: normal | did not reveal any acute toxicity; also recorded: did not reveal signs of toxicity | well tolerated | significantly delayed | not suppressed | sharp decline | 20 to 30 | < 5 | 3500 | directly proportional to dose | ~1.5 | 2500
